Entries after “also recorded” stand apart in the source; their conditions may differ. Peptide text beside a SMILES is read from it.
Tests used:
[1] = discussion statement, no data shown; cited from earlier work
[2] = tested on: LPS-induced sepsis in pigs; assay: Adverse effects in the LPS-induced ALI model in pigs / tolerability statements; parameters: species or system Yorkshire pigs (Sus scrofa domesticus); conditions: pig, in vivo; listed as PIP-2
Procedure: Prior to start of the experiment, the battery of systemic, cardiovascular, and pulmonary tests was carried out. These are called baseline measurements. Pigs were infused IV (zero time) with: Group 1, liposomes alone, no LPS (control, n=2); Group 2, LPS+liposomes (ALI untreated, n=6); and Group 3, LPS+PIP-2 in liposomes (ALI treated, n=12). Technical personnel responsible for animal care were “blinded” to the treatment conditions. LPS was given as an IV infusion of 50 ug/kg body weight over the first hour of the experiment. […] Either liposomes alone (Group 2) or PIP-2 in liposomes (Group 3) was infused as a “slow” bolus at the end of the LPS infusion. Liposomes were given at 2.22 mg/kg body weight. PIP-2 was given at 20 mg/kg body weight. Based on the measured encapsulation efficiency of ~15-20%, the IV administered PIP-2 was ~3-4 mg/kg body weight in liposomes and the remainder was in aqueous solution; presumably, the encapsulated PIP-2 was internalized by cells while the unencapsulated PIP-2 remained extracellular.

ALI in mice = conditions: variety of mouse models of ALI; cited from earlier work
pancreatic PLA2 = conditions: role: inhibitor; background statement; cited from earlier work
Prdx6 = conditions: role: inhibitor; background statement; cited from earlier work

Molecule	tissue half-life (in words) [1]	adverse side-effects / toxicity (in words) [2]	effect on lung injury in mouse ALI models (in words) (ALI in mice)	inhibition of other PLA2 enzymes (in words) (pancreatic PLA2)	inhibition of aiPLA2 / PLA2 activity of Prdx6 (in words) (Prdx6)
CC[C@H](C)[C@H](NC(=O)[C@H](CCC(N)=O)NC(=O)[C@H](Cc1c[nH]cn1)NC(=O)[C@H](CCCNC(=N)N)NC(=O)[C@H](Cc1ccccc1)NC(=O)[C@H](CC(=O)O)NC(=O)[C@H](Cc1c[nH]cn1)NC(=O)[C@@H](N)CC(C)C)C(=O)N[C@@H](CC(C)C)C(=O)O [SEQ ID NO: 2] (H-LHDFRHQIL-OH)	relatively favorable tissue half-life	no evidence of adverse side-effects; also recorded: non-toxic	–	–	–
CCCCCCCCCCCCCCCCOCC(COCC(F)(F)F)OP(=O)(O)OC (stereo not drawn) [MJ33]	–	–	can significantly ameliorate lung injury; also recorded: markedly protective effect against lung injury	inhibits various PLA2 enzymes such as pancreatic PLA2	bind to Prdx6 preventing aiPLA2 activity
SP-A: surfactant protein A (SP-A), 246 amino acids of human SP-A	–	–	–	–	bind to Prdx6 preventing aiPLA2 activity; also recorded: binds to Prdx6 and inhibits its aiPLA2 activity

— patent publication US20260306579A1, “COMPOSITIONS AND METHODS FOR TREATMENT OF SEPTIC SHOCK” (PEROXITECH THERAPEUTICS, INC., priority 2023, published 2026)
